Entries after “also recorded” stand apart in the source; their conditions may differ. Like-named read-outs stand apart in the source and are kept apart here.
Tests used:
[1] = tested on: C. psittaci strain B577; details: mouse, in vivo
[2] = tested on: NO production; details: mouse, in vivo
[3] = tested on: IL-12p70, IFN-γ, NOS2, arginase I, arginase II in lung tissue; details: mouse, in vivo, 6 mg/kg
[4] = tested on: splenic CD4+ T cells; details: mouse, in vivo, 6 mg/kg/day
[5] = tested on: C. psittaci; details: mouse, in vivo
[6] = tested on: C. pneumoniae; details: mouse, in vivo

`CCC[C@H](N)C(=O)O` [L-norvaline] was tested, and the “chlamydial lung disease (lung weight increase), change in words” value [1] was “significantly increased; also recorded: partially reverted to a disease phenotype”, the “chlamydial lung disease, change in words” value [1] was “did not change the disease” and the day-4 serum nitrite/nitrate [2] was 123.22 ± 38.8 µM. For the same compound, the “serum nitrite/nitrate (NO production), change in words” value [2] was “significantly increased; also recorded: produced more NO”.
For `N=C(N)NN` [AG, aminoguanidine], the “NOS2, arginase I and arginase II transcript levels on days 4 and 12” value [3] was “resembled those of BALB/c mice”, the “day-4 pulmonary IFN-γ transcripts” value [3] was “significant increase” and the “day-4 pulmonary concentration of IL-12 p70” value [3] was “significant increase”. The “CD4+ splenocytes, day 4” value [4] was 28.0±0.55%, the “reduction of chlamydial lung burden” value [5] was “more than 10 fold” and the “chlamydial burden on day 7 after secondary infection” value ([5]; 100 mg/kg) was “substantially, but not significantly, higher”. For the same compound, the “disease (interstitial pneumonia) on day 7 after secondary infection” value ([5]; 100 mg/kg) was “completely abolished disease; also recorded: completely abolished the development of interstitial pneumonia”, the “disease on day 7 after secondary infection” value ([5]; 100 mg/kg) was “marginally increased” and the “chlamydial lung burden on day 7” value [1] was “higher chlamydial burdens”. The “day-12 chlamydial lung burden” value [1] was “greatly reduced”, the day-12 disease [1] was “did not show significant changes” and the “day-12 disease (lung weight increase)” value [1] was “developed severe day-12 disease”. The “day-12 disease phenotype (lung weight increase)” value [1] was “completely reversed the severe day-12 disease phenotype; also recorded: completely protected; also recorded: protected from disease”, the “disease outcomes and numbers of chlamydiae in lung tissue” value [1] was “did not change disease outcomes” and the “elimination of chlamydiae from lungs after day 7” value [1] was “significantly more rapidly”. For the same compound, the “chlamydial lung loads after secondary infection” value [6] was “reduced chlamydial lung loads”, the “gross lung disease after secondary infection” value [6] was “free of gross lung disease” and the “interstitial pneumonia on day 7 after secondary infection” value [6] was “completely abolished the development of interstitial pneumonia”. For the same compound, the day-4 serum nitrite/nitrate ([2]; 6 mg/kg/day) was 73.2 ± 3.8 µM, the day-4 serum nitrite/nitrate ([2]; 200 mg/kg/day) was 39.7 ± 2.9 µM and the “serum nitrite/nitrate (NO production), change in words” value ([2]; ip) was “significantly reduced; also recorded: reduced NO production of infected C57BL/6 mice in a dose-dependent manner”.
